Legend:
CD34^+ progenitor cells = assay: PGE of HPRT with Cpf1 electroporation in non-pluripotent cells; assay type: cell-based, human; details: primary cells
Method: (§1) Cells were grown at 37° C. in a humidified incubator gassed with 5% CO2. Media was replaced every day for stem cells and every second day for non-pluripotent cell lines. Cell cultures were maintained 4-6 days until ˜80% confluency, and subcultured at a 1:6 to 1:10 dilution.
(§2) The recombinant A.s. Cpf1 and S.p. Cas9 protein and electroporation enhancer was ordered from IDT (Coralville, USA) and nucleofection was done using the manufacturer's protocol, except for the following alterations. […] For multiplexing, only gRNAs and single stranded DNA donors were electroporated, since a Cas9n expressing iCRISPR-Cas9n hiPSC line was used. Cells were counted using the Countess Automated Cell Counter (Invitrogen).
(§3) Three days after lipofection cells were dissociated using Accutase (SIGMA, A6964), pelleted, and resuspended in 15 μl QuickExtract (Epicentre, QE0905T). Incubation at 65° C. for 10 min, 68° C. for 5 min and finally 98° C. for 5 min was performed to yield ssDNA as a PCR template. Primers for each targeted loci of CALD1, KATNA1 and SLITRK1 containing adapters for Illumina sequencing were ordered from IDT (Coralville, USA). PCR was done in a T100 Thermal Cycler (Bio-Rad) using the KAPA2G Robust PCR Kit (Peqlab, 07-KK5532-03) with supplied buffer B and 3 μl of cell extract in a total volume of 25 μl. The thermal cycling profile of the PCR was: 95° C.

CD4^+ T cells = assay: as above; assay type: cell-based, human; details: primary cells
Method: as §1, §2, §3

## NS(=O)(=O)OC[C@@H]1C[C@@H](n2ccc3c(N[C@H]4CCc5ccccc54)ncnc32)C[C@@H]1O [MLN4924, Pevonedistat]
CD34^+ progenitor cells
  effect on PGE efficiency: disruptive effect
CD4^+ T cells
  effect on PGE efficiency: disruptive effect

Source: patent US12173309B2, “Compounds for increasing genome editing efficiency” (Max-Planck-Gesellschaft zur Förderung der Wissenschaften …, priority 2017, dated 2024)
